From PubChem BioAssay (NCI)
“And” between values parts separate entries of the source, which are not always exact repeats. Identical values can stand only once.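 Grown in 96-well plates, cells were treated for 48 hours with each compound at five concentrations. Insufficient inhibition: endpoint recorded as highest concentration tested. GI50 marks 50% less growth. Definition used: TGI = concentration required for complete inhibition of growth.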

Experiments:
Assay in all cases: growth of human tumour cells (NCI), 48 h
[1] = tested on: EKVX NSCLC
[2] = tested on: OVCAR-5 ovarian
[3] = tested on: OVCAR-3 ovarian
[4] = tested on: IGROV1 ovarian
[5] = tested on: SN12C renal
[6] = tested on: SF-295 CNS
[7] = tested on: NCI-H522 lung
[8] = tested on: LOX IMVI melanoma
[9] = tested on: HL-60(TB) leukemia
[10] = tested on: SR leukemia

SMILES | TGI [1] | TGI [2] [µM] | TGI [3] [µM] | TGI [4] | TGI [5] | TGI [6] [µM] | TGI [7] [µM] | TGI [8] [µM] | GI50 [1] [µM] | GI50 [2] [µM] | GI50 [3] [µM] | GI50 [9] [µM] | TGI [9] [µM] | GI50 [4] [µM] | GI50 [5] [µM] | GI50 [7] [µM] | TGI [10] [µM] | GI50 [10] [µM] | GI50 [6] [µM] | GI50 [8] [µM]
CNCCCNc1c2ccccc2nc2cccc([N+](=O)[O-])c12 | 0.0226 µM and 0.0389 µM | 0.022 | 0.0149 | 0.0201 µM and 0.0279 µM | < 0.0318 µM and 0.0181 µM | 0.0279 | 0.0022 | 0.016 |  |  |  |  |  |  |  |  |  |  |  | 
CC12OC(C(=O)C13CCC3)C1C(=O)c3ccc4c(ccc5ccccc54)c3C(=O)C12 (stereo unspecified) | 63.7 µM | 33.9 | 2.47 | > 100 µM | 19.6 µM | 0.0612 | 35.1 |  | 20.7 | 17.8 | 0.388 | 5.15 | 43.7 | 21.4 | 2.72 | 13 |  |  |  | 
O=C(/C(=N/Nc1ccccc1)c1ccc([N+](=O)[O-])cc1)c1ccc([N+](=O)[O-])cc1 | > 100 µM | > 100 | > 100 | > 100 µM | > 100 µM | > 100 | > 100 |  |  |  |  |  |  |  |  |  | > 100 |  |  | 
COC(=O)CC(=O)NCC1=CCC(=O)CC1 | > 100 µM |  | > 100 | > 100 µM | > 100 µM | > 100 | > 100 | > 100 |  |  |  |  | > 100 |  |  |  |  |  |  | 
O=c1[nH]c(=O)n(C2CC(O)C(CO)O2)cc1COCC(F)(F)F (stereo unspecified) | > 100 µM | > 100 | > 100 | > 100 µM | > 100 µM | > 100 | > 100 | > 100 |  |  |  |  | > 100 |  |  |  |  |  |  | 
COc1cc(-c2cc3ncccc3c3[nH]c(=O)c4cccnc4c23)cc(OC)c1OC | > 100 µM | > 100 | > 100 | > 100 µM | > 100 µM | 25.4 | 82.5 | > 100 | 0.818 | > 100 | 0.329 |  |  | 3.61 | 14.3 | 0.328 | 71.9 | 0.359 | 0.379 | 0.511
Clc1ccc(OCc2nnc3n2N=C(c2ccccc2)CS3)c(Cl)c1 |  | > 100 |  | > 100 µM |  | 86.6 | > 100 | 5.87 |  |  |  |  | > 100 |  |  |  | > 100 |  |  | 
Nc1ccc(-c2ccc3ncc4ccc(=O)n(-c5cccc(C(F)(F)F)c5)c4c3c2)cn1 |  | 31.5 | 3.32 | 0.314 µM | > 52.2 µM | 1.19 | 2.03 | 0.481 |  | < 0.0145 | < 0.01 | 0.0408 | 8.66 | < 0.01 | < 0.0131 | < 0.01 | 0.56 | < 0.01 | < 0.01 | < 0.01
Nc1nc2c(ccc3ccccc32)s1 | > 100 µM | > 100 | > 100 | > 100 µM | > 100 µM | > 100 | > 100 | > 100 | 40.5 | > 100 | 43.4 |  |  | > 100 | > 100 | > 100 |  |  | > 100 | 78.2
C[C@H](NC(=O)c1c(C(F)F)nn(C)c1Oc1cccc(C(F)(F)F)c1)c1ccc(C(=O)O)cc1 | > 100 µM | > 100 | > 100 | > 100 µM | > 100 µM | > 100 | > 100 | > 100 | > 100 | > 100 | > 100 | > 100 | > 100 | > 100 | > 100 | > 100 |  |  | > 100 | > 100
C=C(CO)CC(/C=C(\C)CC/C=C(\C)CCl)OC(C)=O (stereo unspecified) | > 100 µM | > 100 | > 100 | > 100 µM | > 100 µM | > 100 | > 100 | > 100 |  |  |  |  | > 100 |  |  |  |  |  |  | 
O=C([CH-]C(=O)c1ccccc1)c1ccccc1.O=C([CH-]C(=O)c1ccccc1)c1ccccc1.O=C([CH-]C(=O)c1ccccc1)c1ccccc1.[Cl-].[Zr+4] | 26.8 µM | > 100 | 39.4 | > 100 µM | > 100 µM | > 100 | 46.6 | > 100 | 4.03 | 53.8 | 10.6 |  |  | 34.3 | 35.9 | 11.4 |  |  | 12.8 | 26.7
COc1cc(-c2nccc3cc4c(cc23)OCO4)cc(OC)c1OC | > 100 µM | > 100 | 4.72 | > 100 µM | > 100 µM | 14.2 | 27.4 | > 100 | 7.1 | 24.9 | 2.09 |  |  | 8.92 | 7.64 | 2.33 |  |  | 2.03 | 6.06
CCC[CH2][Sn]([CH2]CCC)([CH2]CCC)[O]C(=O)C(OC)c1ccccc1 (stereo unspecified) | 0.228 µM | 0.183 | 0.213 | 0.295 µM | 0.24 µM | 0.259 | 0.212 | 0.13 | 0.0277 | 0.0371 | 0.0845 | 0.0418 | 0.256 | 0.13 | 0.117 | 0.0885 |  |  | 0.13 | 0.0309
COc1cc2nc(-c3cccc4cccnc34)nc(NC3CCN(Cc4ccccc4)CC3)c2cc1OC | 3.3 µM | 2.73 | 3.08 | 2.31 µM | 2.58 µM | 3.09 | 3.98 |  | 1.48 | 1.3 | 1.52 |  |  | 0.93 | 1.11 | 1.45 |  |  | 1.44 | 
Cn1cc(C2=C(c3ccccc3C(F)(F)F)C(=O)NC2=O)c2ccccc21 |  | > 25 | 24.8 | > 25 µM | > 25 µM | > 17.2 | > 25 | > 25 |  | > 24.1 | 7.8 | 6.87 | 17.5 | 13.2 | 9.73 | 11.6 | > 22.2 | 6.36 | 4.33 | 8.46
